Tests used:
Assay type in all cases: in vivo
[1] = test system: housefly (Musca domestica); assay: Test Example 9: treated filter paper with sucrose bait, housefly, 500 ppm; settings: 0.7 mL on filter paper, female adult housefly, after 24 hours
Method: Each formulation comprising the Present compound 5, 17, 25, 26, 27, 31, 35, 36, 37 or 38, or the N-oxide 3, the N-oxide 4, or the N-oxide 5 prepared by the process according to the Formulation example 5 was diluted with water until the concentration of the active ingredient reached 500 ppm to prepare a test chemical solution.
The bottom of the polyethylene cup having 5.5 cm diameter was matted with the same size of a filter paper, and 0.7 mL of the test chemical solution was added dropwise to the filter paper, and 30 mg sucrose as bait was placed in the cup uniformly. Ten (10) heads of female adult housefly (Musca domestica) were released into the polyethylene cup, and the cup was covered with a lid. After 24 hours, the life and death of housefly was investigated, and the number of dead insects was counted, and the mortality of insects was calculated by the following equation. Mortality of insects (%)=(the number of dead insects/the number of test insects)×100

[2] = test system: cotton aphid (Aphis gossypii); assay: Test Example 2: foliar spray on cucumber seedling infested with cotton aphid, 200 ppm; settings: 144 h, spray 20 mL/seedling on cucumber, 6 days after spraying, read-out: controlling value
[3] = test system: cotton aphid (Aphis gossypii); assay: Test Example 1: foliar spray on cucumber seedling infested with cotton aphid, 500 ppm; settings: 144 h, spray 20 mL/seedling on cucumber, 6 days after spraying, read-out: controlling value
[4] = test system: brown planthopper (Nilaparvata lugens); assay: Test Example 5: spray on rice seedling, brown planthopper, 200 ppm; settings: 144 h, 10 mL spray on rice seedling, 3rd to 4th instar larvae, after 6 days, 25° C., read-out: controlling value
[5] = test system: cabbage moth (Plutella xylostella); assay: Test Example 8: spray on cabbage seedling, cabbage moth larvae, 200 ppm; settings: 120 h, spray 20 mL/cup on cabbage, 2nd instar larvae, 25° C., 5 days, read-out: morality of insects
Method: (§1) Meanwhile, cabbage seedling (on the developmental stage of the third true leaf) was planted in a polyethylene cup, and each of the test chemical solution was sprayed into the cabbage seedling in a ratio of 20 mL/cup. After the test chemical solution was dried, the stem and leaf thereof was cut out and then installed into a 50 mL cup. Five (5) heads of 2nd instar larvae of cabbage moth (Plutella xylostella) were released into the cup, and the cup was covered with a lid. After the cup was stored at 25° C. for 5 days, the number of the dead insects was counted, and the mortality of insects was calculated by the following equation. Morality (%)=(1−the number of the surviving insects/the number of the test insects)×100

[6] = test system: cabbage moth (Plutella xylostella); assay: Test Example 7: spray on cabbage seedling, cabbage moth larvae, 500 ppm; settings: 120 h, spray 20 mL/cup on cabbage, 2nd instar larvae, 25° C., 5 days, read-out: morality of insects
Method: as §1, with “[…]” for “surviving”

[7] = test system: cucurbit leaf beetle (Aulacophora femoralis); assay: Test Example 11: spray on cucumber seedling, cucurbit leaf beetle larvae, 50 ppm; settings: 120 h, Formulation example 1, spray 30 mL/cup on cucumber, second instar larvae, 25° C., 5 days, read-out: morality of insects
Method: Meanwhile, cucumber seedling (on the developmental stage of the third true leaf) was planted in a polyethylene cup, and each of the test chemical solution was sprayed into the seedling in a ratio of 30 mL/cup. After the test chemical solution was dried, the second leaf thereof was cut out, and then installed into a 200 mL cup. Ten (10) heads of the second instar larvae of cucurbit leaf beetle (Aulacophora femoralis) were released into the cup, and the cup was covered with a lid. After the cup was stored at 25° C. for 5 days, the number of the dead insects was counted, and the mortality of insects was calculated by the following equation. Morality (%)−{the number of the dead insects/the number of the test isects}×100

[8] = test system: house mosquito (Culex pipiens pallens); assay: Test Example 10: house mosquito larvae in treated water; settings: 0.7 mL of 500 ppm solution in 100 ml water (3.5 ppm), last instar larvae, after 1 day
Method: The formulation comprising the Present compounds 4 prepared by the process according to the Formulation example 5 was diluted with water until the concentration of the active ingredient reached 500 ppm to prepare a test chemical solution.
Zero point seven(0.7) mL of the testg chemical solution was added to ion-changed water 100 ml (the concentrataion of the active ingredient was 3.5 ppm). Twently (20) heads of the last instar larvae of […] house mosquito (Culex pipiens pallens) were released […], and after 1 day, the life and death of house mosquito was investigated, and the number of dead insects was counted, and the mortality of insects was calculated by the following equation. Mortality of insects (%)=(the number of the dead insects/the number of the test insects)×100

Compound	morality of insects [1]	pest or weed control at 200 ppm [2]	pest or weed control at 500 ppm [3]	pest or weed control at 200 ppm [4]	pest or weed control at 200 ppm [5]	pest or weed control at 500 ppm [6]	pest or weed control at 50 ppm [7]	insect mortality [8]
CCS(=O)(=O)c1cccnc1-c1ccc(OCC(C)(C(F)(F)F)C(F)(F)F)nn1 [Present compound 25]	100%							
CCS(=O)(=O)c1cccnc1-c1ccc(OCC(F)(F)C(F)(F)C(F)(F)F)nn1 [Present compound 17]	100%							
CCS(=O)(=O)c1cccnc1-c1cc(C)c(OCC(F)(F)C(F)(F)F)nn1 [Present compound 36]	100%	≥ 90%	≥ 90%	≥ 90%	≥ 80%	≥ 80%		
CCS(=O)(=O)c1cccnc1-c1ccc(OCC(Cl)(Cl)Cl)nn1 [Present compound 4]		≥ 90%	≥ 90%				≥ 85%	≥ 95%
CCS(=O)(=O)c1cccnc1-c1ccc(OCC(F)(F)F)nn1 [Present compound 5]	100%							
CCS(=O)(=O)c1cc(C(F)(F)F)cnc1-c1ccc(OCC(F)(F)C(F)F)[n+]([O-])n1 [N-oxide 5]	100%							
CCS(=O)(=O)c1cc(C(F)(F)F)ccc1-c1ccc(OCC(F)(F)F)nn1 [Present compound 1]							≥ 85%	
CC[S+]([O-])c1cccnc1-c1cc(C)c(OCC(F)(F)C(F)(F)F)nn1 (stereo not drawn) [Present compound 38]	100%	≥ 90%	≥ 90%	≥ 90%	≥ 80%	≥ 80%		
CCS(=O)(=O)c1cc(C(F)(F)F)cnc1-c1ccc(OCC(F)(F)C(F)F)nn1 [Present compound 31]	100%							
CCS(=O)(=O)c1cccnc1-c1cc(C(F)(F)F)c(OCC(F)(F)C(F)F)nn1 [Present compound 33]			≥ 90%		≥ 80%	≥ 80%		
CC[S+]([O-])c1cccnc1-c1ccc(OCC(F)(F)C(F)(F)F)nn1 (stereo not drawn) [Present compound 29]		≥ 90%	≥ 90%	≥ 90%			≥ 85%	
CCSc1cccnc1-c1ccc(OCC(F)(F)C(F)(F)F)nn1 [Present compound 27]	100%	≥ 90%	≥ 90%	≥ 90%	≥ 80%	≥ 80%	≥ 85%	
CCS(=O)(=O)c1cccnc1-c1n[n+]([O-])c(OCC(F)(F)C(F)(F)F)cc1C [N-oxide 3]	100%							
CCS(=O)(=O)c1cc(C(F)(F)F)cnc1-c1ccc(OCC(F)(F)C(F)(F)F)nn1 [Present compound 28]		≥ 90%		≥ 90%	≥ 80%		≥ 85%	
CCS(=O)(=O)c1cccnc1-c1cc(C)c(OCC(F)(F)C(F)F)nn1 [Present compound 35]	100%	≥ 90%	≥ 90%	≥ 90%	≥ 80%	≥ 80%	≥ 85%	
CCC(Oc1ccc(-c2ncccc2S(=O)(=O)CC)nn1)C(F)(F)F (stereo not drawn) [Present compound 26]	100%							
CCS(=O)(=O)c1cccnc1-c1nnc(OCC(F)(F)C(F)(F)F)cc1C [Present compound 30]					≥ 80%			
CCS(=O)(=O)c1cccnc1-c1cc(C(F)(F)F)c(OCC(F)(F)C(F)(F)F)nn1 [Present compound 34]			≥ 90%		≥ 80%	≥ 80%	≥ 85%	
CC[S+]([O-])c1cccnc1-c1cc(C)c(OCC(F)(F)C(F)F)nn1 (stereo not drawn) [Present compound 37]	100%	≥ 90%	≥ 90%	≥ 90%		≥ 80%		
CCS(=O)(=O)c1cccnc1-c1ccc(OCC(F)(F)C(F)F)nn1 [Present compound 8]		≥ 90%	≥ 90%	≥ 90%	≥ 80%	≥ 80%	≥ 85%	
CCS(=O)(=O)c1cc(C(F)(F)F)cnc1-c1ccc(OCC(F)(F)C(F)(F)F)[n+]([O-])n1 [N-oxide 4]	100%							
